The target in experiment [1] is T1, acyl-CoA:cholesterol acyltransferase (ACAT) (Oryctolagus cuniculus, UniProt G1SFD9).
T1 construct: tissue preparation containing rabbit intestinal microsomes; from tissue; host or cells: rabbit intestinal microsomes
T1 sequence (G1SFD9 1-524): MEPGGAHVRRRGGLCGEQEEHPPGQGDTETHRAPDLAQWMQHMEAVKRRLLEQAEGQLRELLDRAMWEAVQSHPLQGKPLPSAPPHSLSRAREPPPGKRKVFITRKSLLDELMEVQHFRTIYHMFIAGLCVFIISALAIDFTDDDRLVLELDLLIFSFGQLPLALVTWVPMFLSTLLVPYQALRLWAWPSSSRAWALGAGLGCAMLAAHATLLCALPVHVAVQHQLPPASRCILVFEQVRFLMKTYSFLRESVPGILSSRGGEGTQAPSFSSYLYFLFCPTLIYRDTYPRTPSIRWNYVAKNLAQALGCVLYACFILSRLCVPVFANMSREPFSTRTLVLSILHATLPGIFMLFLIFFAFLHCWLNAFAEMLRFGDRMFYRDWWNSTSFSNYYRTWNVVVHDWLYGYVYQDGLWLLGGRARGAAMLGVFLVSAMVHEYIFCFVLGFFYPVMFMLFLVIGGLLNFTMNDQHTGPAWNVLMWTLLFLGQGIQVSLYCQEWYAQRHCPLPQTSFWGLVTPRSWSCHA
Put plainly: in vitro inhibition of ACAT (cholesterol esterification by radio-labeled oleic acid, rabbit intestinal microsomes). The class given is biochemical. An excerpt:
The test assesses the ability of a compound to inhibit the acylation of cholesterol by oleic acid by measuring the amount of radio-labeled cholesterol oleate formed from radio-labeled oleic acid in a tissue preparation containing rabbit intestinal microsomes.

The next experiment relates to total cholesterol. Put plainly: cholesterol-fed rat test. The class given is in vivo, male, Sprague-Dawley rats. As to conditions: drug admixed in diet with 5.5% peanut oil, 1.5% cholesterol and 0.3% cholic acid, one week, nonfasted. The text has this:
In the cholesterol-fed rat test, male, Sprague-Dawley rats (approximately 200 g body weight) were randomly divided into groups and provided ad libitum a regular rat chow diet (Purina No. 5002) supplemented with 5.5% peanut oil, 1.5% cholesterol and 0.3% cholic acid, with or without drug admixed at the indicated levels (w/w). After one week, the animals (nonfasted) were etherized and blood was taken from the heart into EDTA (0.14% final concentration) to measure total cholesterol using the Abbott VP Analyzer.

Another experiment deals with serum cholesterol. The experiment is described as follows: cholesterol-fed rabbit test. The class given is in vivo, male, New Zealand white rabbits. The settings on record: oral 50 mg/kg thirty minutes prior to each meal for seven days, serum cholesterol three hours after last meal. The text has this:
In the cholestrol-fed rabbit test, male, New Zealand white rabbits weighing approximately 1 kg were fed a normal diet 40 g per day of rabbit chow (Purina NO. 5321, Ralston Purina Co., 711 West Fuesser Road, Mascoutah, Ill., 62224, USA). After six days on this diet, the rabbits were fed 50 g per day for three days of a cholsterol-enriched diet consisting of one part of a cholesterol-containing chow (Purina Catalog No. 841206WLI, 0.25% cholesterol) and two parts of normal chow. Next, the rabbits were fed 60 g per day for four days of a cholsterol-enriched diet consisting of two parts of a cholesterol-containing chow (Purina Catalog No. 841206WLI, 0.25% cholesterol) and one part of normal chow.
After this meal adaptation and cholesterol loading period, the test compounds of this invention were administered to the test animals in oral doses of 50 mg/kg of body weight thirty minutes prior to each meal for seven days. Control animals were administered vehicle only.
The animals were sacrificed three hours after their last meal in the postabsorptive state. Serum cholesterol levels were determined for each animal, and the data appear in Table 2 expressed as percent change in serum cholesterol level compared to control.

Results on 22 molecules are retold here after patent publication US4716175A, “Saturated fatty acid amides as inhibitors of acyl-CoA:cholesterol acyltransferase” (Warner-Lambert Company, priority 1987, dated 1987).

As a reminder, the IC50 is the midpoint of a concentration-inhibition curve.

`CCCCCCCCCCC1(C(=O)Nc2c(OC)cc(OC)cc2OC)CCCC1` [1-Decyl-N-(2,4,6-trimethoxyphenyl)cyclopentanecarboxamide] returned an IC50 in experiment [1] of 7 nM. Moreover, the “Percent Reduction in Cholesterol, Rat” value in the experiment with total cholesterol is -52%.

In the case of `CCCCCCCCCCC(C)(C)C(=O)Nc1c(OC)cc(OC)cc1OC` [2,2-Dimethyl-N-(2,4,6-trimethoxyphenyl)dodecanamide], the “Percent Reduction in Cholesterol, Rat” value in the experiment on total cholesterol was -54%. Also, the “Percent Reduction in Cholesterol, Rabbit (percent change in serum cholesterol level compared to control)” value with serum cholesterol is -67%.

Consider `CCCCCCCCCCCCCCC(C)(C)C(=O)NC(C)c1ccccn1` (centres unmarked) [2,2-Dimethyl-N-[1-(2-pyridinyl)ethyl]hexadecanamide], for which, in experiment [1], the IC50 is 700 nM.

In experiment [1], `CCCCCCCCCCCCC(CC)C(=O)Nc1c(OC)cc(OC)cc1OC` (centres unmarked) [2-Ethyl-N-(2,4,6-trimethoxyphenyl)tetradecanamide] showed an IC50 of 50 nM. Against the preceding molecule, the IC50 is about 14-fold lower.

In experiment [1], `CCCCCCCCCCC(CC)C(=O)NC(C)c1ccccn1` (centres unmarked) [2-Ethyl-N-[1-(2-pyridinyl)ethyl]dodecanamide] had a concentration for half-maximal inhibition (IC50) of 1600 nM. This IC50 lies about 32-fold higher than the previous one.

On to `CCCCCCCCCCCCC(C)C(=O)Nc1c(OC)cc(OC)cc1OC` (centres unmarked) [2-Methyl-N-(2,4,6-trimethoxyphenyl)tetradecanamide], for which, in the experiment with total cholesterol, the “Percent Reduction in Cholesterol, Rat” value is -52%. For the same molecule, in the experiment on serum cholesterol, the “Percent Reduction in Cholesterol, Rabbit (percent change in serum cholesterol level compared to control)” value is reported as -45%.

In experiment [1], `CCCCCCCCCCC(C)C(=O)NC(C)c1ccccn1` (centres unmarked) [2-Methyl-N-[1-(2-pyridinyl)ethyl]dodecanamide] registered an IC50 of 3300 nM.

In turn, `CCCCCCCCCCCCC(C)C(=O)NC(C)c1ccccn1` (centres unmarked) [2-Methyl-N-[1-(2-pyridinyl)ethyl]tetradecanamide] gave an IC50 in experiment [1] of 800 nM.

As for `CCCCCCCCCCC(CCC)C(=O)NC(C)c1ccccn1` (centres unmarked) [2-Propyl-N-[1-(2-pyridinyl)ethyl]dodecanamide], half-maximal inhibition in experiment [1] (IC50) required 3700 nM.

With `CCCCCCCCCCCCC(CC)C(=O)NC(C)c1ccccn1` (centres unmarked) [2-ethyl-N-[1-(2-pyridinyl)ethyl]tetradecanamide], half-maximal inhibition in experiment [1] (IC50) required 700 nM. This IC50 is about 5.3-fold lower than that of the molecule before.

Consider `CCCCCCCCCCCCCCC(C)C(=O)NC(C)c1ccccn1` (centres unmarked) [2-methyl-N-[1-(2-pyridinyl)ethyl]hexadecanamide], for which the IC50 in experiment [1] is 1400 nM.

With `CCCCCCCC/C=C\CCCCCCCCC(C)(C)C(=O)Nc1c(OC)cc(OC)cc1OC` [(Z)-2,2-Dimethyl-N-(2,4,6-trimethoxyphenyl)-11-eicosenamide], the IC50 in experiment [1] was 110 nM.

In experiment [1], `CCCCCCCC/C=C\CCCCCCC(C)C(=O)Nc1c(OC)cc(OC)cc1OC` (centres unmarked) [(Z)-2-methyl-N-(2,4,6-trimethoxyphenyl)-9-octadecenamide] came in with an IC50 of 34 nM.

On to `CCCCCCCC/C=C\CCCCCCCCC(C)(C)C(=O)Nc1c(C)cccc1OC` [(Z)-N-(2-Methoxy-6-methylphenyl)-2,2-dimethyl-11-eicosenamide], for which, in experiment [1], the half-maximal inhibitory concentration (IC50) worked out at 680 nM.

`CCCCCCCC/C=C\CCCCCCCCC(C)(C)C(=O)Nc1c(OC)ncnc1OC` [(Z)-N-(4,6-dimethoxy-5-pyrimidinyl)-2,2-dimethyl-11-eicosenamide] displayed an IC50 in experiment [1] of 780 nM.

Molecule `CCCCCCCCCCC(C)(C)C(=O)Nc1c(C)cccc1OCC` [N-(2-Ethoxy-6-methylphenyl)-2,2-dimethyl-dodecanamide] came in with an IC50 in experiment [1] of 230 nM.

`CCCCCCCCCCCCC(C)C(=O)Nc1c(OCC)ncnc1OCC` (centres unmarked) [N-(4,6-Diethoxy-5-pyrimidinyl)-2-methyltetradecanamide]: inhibition in experiment [1] was half-maximal at 500 nM (IC50).

On to `CCCCCCCCCCC(C)(C)C(=O)Nc1c(OC)ncnc1OC` [N-(4,6-Dimethoxy-5-pyrimidinyl)-2,2-dimethyldodecanamide], for which, in experiment [1], half-maximal inhibition (IC50) was put at 230 nM.

In the case of `CCCCCCCCCCCCC(CC)C(=O)Nc1c(OC)ncnc1OC` (centres unmarked) [N-(4,6-Dimethoxy-5-pyrimidinyl)-2-ethyltetradecanamide], in experiment [1], it took 260 nM to reach half-maximal inhibition (IC50).

As to `CCCCCCCCCCCCC(C)(C)C(=O)Nc1c(OC)ncnc1OC` [N-(4,6-dimethoxy-5-pyrimidinyl)-2,2-dimethyltetradecanamide], in experiment [1], it took 1300 nM to reach half-maximal inhibition (IC50).

`CCCCCCCCCCCCC(C)C(=O)Nc1c(OC)ncnc1OC` (centres unmarked) [N-(4,6-dimethoxy-5-pyrimidinyl)-2-methyltetradecanamide] yielded an IC50 in experiment [1] of 400 nM. For the same molecule, the “Percent Reduction in Cholesterol, Rabbit (percent change in serum cholesterol level compared to control)” value in the experiment with serum cholesterol was -29%.

`CCCCCCCCCCC(Cc1ccccc1)C(=O)NC(C)c1ccccn1` (stereo not drawn) [α-Decyl-N-[1-(2-pyridinyl)ethyl]benzenepropanamide] showed an IC50 in experiment [1] of 7000 nM.
